The values that follow come from BindingDB's records for doi:10.1111/cbdd.12307 (Peking University, 2014).

pIC50: −log10 of the molar value.

The test has as its target T1, Phospholipase A2, membrane associated (Homo sapiens, UniProt P14555).
T1 sequence (P14555 whole entry): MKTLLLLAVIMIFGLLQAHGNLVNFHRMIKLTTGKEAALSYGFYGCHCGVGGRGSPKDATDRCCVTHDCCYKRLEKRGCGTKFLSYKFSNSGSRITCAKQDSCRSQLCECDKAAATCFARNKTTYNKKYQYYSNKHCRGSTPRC
The experiment in a line: Inhibitory Activity Assay. The note with it: pH 8. As to the method:
The reaction mixture contained 160 uL of reaction buffer [50 mM Tris-HCl (pH 8.0), 100 mM NaCl, 5 ug/mL bovine serum albumin (BSA), 5 uM CaCl2, and 10 mM anilinonaphthalene sulfonate (ANS)], 20 uL of substrate stock solution (2 mM DMPC), and 2 mM of sodium deoxycholate in water. After 5 min of sonication, 10 uL of inhibitor stock solution (in DMSO) were incubated at 28 uC for 10 min. The reactions were started by adding 10 uL of hnps-PLA2 stock solution (0.1 mg/mL) and monitored by excitation at 377 nm and emission at 470 nm.
By pIC50 is commonly meant the negative decadic logarithm of the IC50, by convention in mol/L. A higher pIC50 goes with a small IC50. Turning to `O=C(N[C@@H](Cc1ccc([NH+]([O-])O)cc1)C(=O)O)OCC1c2ccccc2-c2ccccc21` (some centres not stated) [DCSD 001360 (3)], the pIC50 is 4.67.

`O=C(CCc1ccccc1)CC[C@H](NC(=O)OCC1c2ccccc2-c2ccccc21)C(=O)O` [DCSD 001850 (5)] had a pIC50 of 4.46.

`O=C(N[C@@H](Cc1ccc(O)c([NH+]([O-])O)c1)C(=O)O)OCC1c2ccccc2-c2ccccc21` (some centres not stated) [DCSD 002267 (4)] had a pIC50 of 4.39. The figure for `O=C(N[C@H](Cc1ccc2ccccc2c1)C(=O)O)OCC1c2ccccc2-c2ccccc21` [DCSD 002847 (2)] is 5.07; for `O=C(N[C@H](Cc1ccccc1)C(=O)O)OCC1c2ccccc2-c2ccccc21` [DCSD 002855 (1)] it is 4.32; for `O=C(COc1ccc2ccccc2c1)N/N=C/c1cccc(OC(=O)c2cc([NH+]([O-])O)cc([NH+]([O-])O)c2)c1` (configuration not stated) [SPECS AG-690/40108589 (7)] it is 4.91.

As to `O=C(COc1ccc(/C=N/NC(=O)c2ccccc2[NH+]([O-])O)cc1)Nc1cccc([NH+]([O-])O)c1` (configuration not stated) [SPECS AG-690/40696769 (6)], the pIC50 was 5.05.
